Measurements taken from the supplement of paper PMC10883282.
± gives the standard deviation of the averaged measurements.

System: SK-ES-1
Experiment: relative viability vs DMSO control (72 h) (fraction); higher = more viable cells
Method in brief: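 Relative viability was measured with ATPLite and expressed as percent growth, averaged across up to triplicate wells. Sarcoma cell lines had been seeded in 384-well plates to reach 80–90% confluence, dosed after 24 h, and incubated 72 h at 37 °C, 5% CO2. All data were rescaled on a scale where 1 is full and 0 is none.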

CO[C@H]1C[C@@H]2CC[C@@H](C)[C@@](O)(O2)C(=O)C(=O)N2CCCC[C@H]2C(=O)O[C@H]([C@H](C)C[C@@H]2CC[C@@H](OP(C)(C)=O)[C@H](OC)C2)CC(=O)[C@H](C)/C=C(\C)[C@@H](O)[C@@H](OC)C(=O)[C@H](C)C[C@H](C)/C=C/C=C/C=C/1C [Ridaforolimus]
relative viability (0.00017 µM): 1.03 ± 0.059 | relative viability (0.00051 µM): 1.04 ± 0.033 | relative viability (0.00152 µM): 0.978 ± 0.051 | relative viability (0.00457 µM): 0.806 ± 0.055 | relative viability (0.01372 µM): 0.675 ± 0.037 | relative viability (0.04115 µM): 0.643 ± 0.037 | relative viability (0.1235 µM): 0.601 ± 0.014 | relative viability (0.3704 µM): 0.555 ± 0.026 | relative viability (1.111 µM): 0.56 ± 0.0043 | relative viability (3.333 µM): 0.545 ± 0.029 | relative viability (10 µM): 0.52 ± 0.011

O=C(Cc1ccc(-c2ccc(OCCN3CCOCC3)cc2)cn1)NCc1ccccc1 [KX2-391]
relative viability (0.00017 µM): 1.07 ± 0.02 | relative viability (0.00051 µM): 1.11 ± 0.035 | relative viability (0.00152 µM): 1.05 ± 0.059 | relative viability (0.00457 µM): 1.07 ± 0.026 | relative viability (0.01372 µM): 1.05 ± 0.032 | relative viability (0.04115 µM): 0.235 ± 0.039 | relative viability (0.1235 µM): 0.024 ± 0.0039 | relative viability (0.3704 µM): 0.0226 ± 0.00042 | relative viability (1.111 µM): 0.0192 ± 0.0041 | relative viability (3.333 µM): 0.0176 ± 0.0029 | relative viability (10 µM): 0.0223 ± 0.0021

COc1cc2nccc(Oc3ccc(NC(=O)Nc4cc(C)on4)c(Cl)c3)c2cc1OC [Tivozanib]
relative viability (0.00017 µM): 1.02 ± 0.058 | relative viability (0.00051 µM): 1.02 ± 0.019 | relative viability (0.00152 µM): 1.03 ± 0.065 | relative viability (0.00457 µM): 1.04 ± 0.028 | relative viability (0.01372 µM): 1.11 ± 0.021 | relative viability (0.04115 µM): 1.07 ± 0.021 | relative viability (0.1235 µM): 1.08 ± 0.06 | relative viability (0.3704 µM): 1.08 ± 0.023 | relative viability (1.111 µM): 1.06 ± 0.041 | relative viability (3.333 µM): 0.973 ± 0.035 | relative viability (10 µM): 0.518 ± 0.018

CCc1cc2c(cc1N1CCC(N3CCOCC3)CC1)C(C)(C)c1[nH]c3cc(C#N)ccc3c1C2=O [Alectinib]
relative viability (0.00017 µM): 1 ± 0.048 | relative viability (0.00051 µM): 1.04 ± 0.023 | relative viability (0.00152 µM): 1.07 ± 0.025 | relative viability (0.00457 µM): 1.07 ± 0.025 | relative viability (0.01372 µM): 1.02 ± 0.031 | relative viability (0.04115 µM): 1.03 ± 0.02 | relative viability (0.1235 µM): 1.06 ± 0.084 | relative viability (0.3704 µM): 1.01 ± 0.068 | relative viability (1.111 µM): 1.08 ± 0.056 | relative viability (3.333 µM): 1.04 ± 0.035 | relative viability (10 µM): 0.915 ± 0.068

COCc1c(-c2cc3cc(C)cc(OC)c3s2)c2c(N)ncnn2c1CN1CCNC(=O)C1 [Rogaratinib]
relative viability (0.00017 µM): 1.04 ± 0.043 | relative viability (0.00051 µM): 1.03 ± 0.044 | relative viability (0.00152 µM): 1.02 ± 0.035 | relative viability (0.00457 µM): 1.03 ± 0.049 | relative viability (0.01372 µM): 1.07 ± 0.045 | relative viability (0.04115 µM): 1.05 ± 0.065 | relative viability (0.1235 µM): 0.982 ± 0.062 | relative viability (0.3704 µM): 0.97 ± 0.011 | relative viability (1.111 µM): 0.848 ± 0.075 | relative viability (3.333 µM): 0.659 ± 0.027 | relative viability (10 µM): 0.463 ± 0.03

CN1CCC(COc2cnc(-c3cccc(Cn4nc(-c5cccc(C#N)c5)ccc4=O)c3)nc2)CC1 [Tepotinib]
relative viability (0.00017 µM): 0.997 ± 0.018 | relative viability (0.00051 µM): 1.08 ± 0.037 | relative viability (0.00152 µM): 1.06 ± 0.026 | relative viability (0.00457 µM): 1.06 ± 0.023 | relative viability (0.01372 µM): 1.02 ± 0.018 | relative viability (0.04115 µM): 1.06 ± 0.028 | relative viability (0.1235 µM): 1.003 ± 0.0064 | relative viability (0.3704 µM): 1 ± 0.037 | relative viability (1.111 µM): 0.974 ± 0.045 | relative viability (3.333 µM): 0.98 ± 0.038 | relative viability (10 µM): 0.718 ± 0.031

Cc1cnc(Nc2ccc(OCCN3CCCC3)cc2)nc1Nc1cccc(S(=O)(=O)NC(C)(C)C)c1 [Fedratinib]
relative viability (0.00017 µM): 0.99 ± 0.063 | relative viability (0.00051 µM): 1.03 ± 0.045 | relative viability (0.00152 µM): 1.047 ± 0.01 | relative viability (0.00457 µM): 1.06 ± 0.028 | relative viability (0.01372 µM): 1.04 ± 0.016 | relative viability (0.04115 µM): 1.03 ± 0.023 | relative viability (0.1235 µM): 0.859 ± 0.067 | relative viability (0.3704 µM): 0.489 ± 0.014 | relative viability (1.111 µM): 0.123 ± 0.01 | relative viability (3.333 µM): 0.0173 ± 0.002 | relative viability (10 µM): 0.0056 ± 0.00035

Cn1cnc2c(F)c(Nc3ccc(Br)cc3F)c(C(=O)NOCCO)cc21 [Binimetinib]
relative viability (0.00017 µM): 1.03 ± 0.019 | relative viability (0.00051 µM): 1.02 ± 0.018 | relative viability (0.00152 µM): 0.988 ± 0.021 | relative viability (0.00457 µM): 0.984 ± 0.058 | relative viability (0.01372 µM): 0.95 ± 0.028 | relative viability (0.04115 µM): 0.957 ± 0.045 | relative viability (0.1235 µM): 0.983 ± 0.036 | relative viability (0.3704 µM): 0.923 ± 0.015 | relative viability (1.111 µM): 0.945 ± 0.05 | relative viability (3.333 µM): 0.893 ± 0.027 | relative viability (10 µM): 0.861 ± 0.077

C[C@@H]1CCN(C(=O)CC#N)C[C@@H]1N(C)c1ncnc2[nH]ccc12 [Tofacitinib]
relative viability (0.00017 µM): 1 ± 0.032 | relative viability (0.00051 µM): 1.05 ± 0.059 | relative viability (0.00152 µM): 1.01 ± 0.023 | relative viability (0.00457 µM): 1.03 ± 0.049 | relative viability (0.01372 µM): 1.04 ± 0.046 | relative viability (0.04115 µM): 1.01 ± 0.056 | relative viability (0.1235 µM): 0.997 ± 0.056 | relative viability (0.3704 µM): 1.01 ± 0.049 | relative viability (1.111 µM): 0.985 ± 0.081 | relative viability (3.333 µM): 1.03 ± 0.056 | relative viability (10 µM): 1.02 ± 0.06

Nc1cc(C(F)(F)F)c(-c2cc(N3CCOCC3)nc(N3CCOCC3)n2)cn1 [Buparlisib]
relative viability (0.00017 µM): 1.03 ± 0.025 | relative viability (0.00051 µM): 1 ± 0.052 | relative viability (0.00152 µM): 1.02 ± 0.037 | relative viability (0.00457 µM): 1.04 ± 0.035 | relative viability (0.01372 µM): 1.03 ± 0.029 | relative viability (0.04115 µM): 1.04 ± 0.019 | relative viability (0.1235 µM): 0.93 ± 0.033 | relative viability (0.3704 µM): 0.749 ± 0.035 | relative viability (1.111 µM): 0.157 ± 0.014 | relative viability (3.333 µM): 0.041 ± 0.00093 | relative viability (10 µM): 0.0484 ± 0.0029

Cn1cc(-c2cc3c(N4CCN(c5ncc([C@@](C)(N)c6ccc(F)cc6)cn5)CC4)ncnn3c2)cn1 [Avapritinib]
relative viability (0.00017 µM): 0.98 ± 0.026 | relative viability (0.00051 µM): 0.981 ± 0.045 | relative viability (0.00152 µM): 0.941 ± 0.011 | relative viability (0.00457 µM): 1 ± 0.018 | relative viability (0.01372 µM): 0.989 ± 0.05 | relative viability (0.04115 µM): 0.96 ± 0.042 | relative viability (0.1235 µM): 0.948 ± 0.027 | relative viability (0.3704 µM): 0.975 ± 0.036 | relative viability (1.111 µM): 0.906 ± 0.018 | relative viability (3.333 µM): 0.778 ± 0.071 | relative viability (10 µM): 0.579 ± 0.022

C=CC(=O)N1CCC([C@@H]2CCNc3c(C(N)=O)c(-c4ccc(Oc5ccccc5)cc4)nn32)CC1 [Zanubrutinib]
relative viability (0.00017 µM): 0.906 ± 0.065 | relative viability (0.00051 µM): 0.938 ± 0.088 | relative viability (0.00152 µM): 0.994 ± 0.05 | relative viability (0.00457 µM): 0.984 ± 0.083 | relative viability (0.01372 µM): 0.949 ± 0.043 | relative viability (0.04115 µM): 0.953 ± 0.029 | relative viability (0.1235 µM): 0.934 ± 0.041 | relative viability (0.3704 µM): 0.953 ± 0.057 | relative viability (1.111 µM): 0.894 ± 0.069 | relative viability (3.333 µM): 0.903 ± 0.031 | relative viability (10 µM): 0.845 ± 0.038

CCCS(=O)(=O)Nc1ccc(F)c(C(=O)c2c[nH]c3ncc(-c4ccc(Cl)cc4)cc23)c1F [Vemurafenib]
relative viability (0.00017 µM): 1.02 ± 0.061 | relative viability (0.00051 µM): 1.06 ± 0.043 | relative viability (0.00152 µM): 1.08 ± 0.016 | relative viability (0.00457 µM): 1.09 ± 0.022 | relative viability (0.01372 µM): 1.06 ± 0.043 | relative viability (0.04115 µM): 1.03 ± 0.045 | relative viability (0.1235 µM): 1.05 ± 0.025 | relative viability (0.3704 µM): 1.1 ± 0.011 | relative viability (1.111 µM): 1.04 ± 0.06 | relative viability (3.333 µM): 0.891 ± 0.078 | relative viability (10 µM): 0.534 ± 0.16

COc1cc2c(Oc3ccc4[nH]c(C)cc4c3F)ncnc2cc1OCCCN1CCCC1 [Cediranib]
relative viability (0.00017 µM): 1.04 ± 0.014 | relative viability (0.00051 µM): 1.07 ± 0.058 | relative viability (0.00152 µM): 1.1 ± 0.02 | relative viability (0.00457 µM): 1.06 ± 0.033 | relative viability (0.01372 µM): 1.06 ± 0.066 | relative viability (0.04115 µM): 1.07 ± 0.015 | relative viability (0.1235 µM): 1.062 ± 0.0014 | relative viability (0.3704 µM): 1.07 ± 0.064 | relative viability (1.111 µM): 0.877 ± 0.033 | relative viability (3.333 µM): 0.763 ± 0.019 | relative viability (10 µM): 0.133 ± 0.049

CC[C@H](Nc1ncnc2[nH]cnc12)c1nc2cccc(F)c2c(=O)n1-c1ccccc1 [Idelalisib]
relative viability (0.00017 µM): 1.06 ± 0.041 | relative viability (0.00051 µM): 1.06 ± 0.06 | relative viability (0.00152 µM): 1.03 ± 0.024 | relative viability (0.00457 µM): 1.08 ± 0.018 | relative viability (0.01372 µM): 1.08 ± 0.015 | relative viability (0.04115 µM): 1.08 ± 0.051 | relative viability (0.1235 µM): 1.04 ± 0.042 | relative viability (0.3704 µM): 1.02 ± 0.021 | relative viability (1.111 µM): 1.01 ± 0.056 | relative viability (3.333 µM): 0.905 ± 0.052 | relative viability (10 µM): 0.827 ± 0.01
